Source: ChEMBL document CHEMBL1201862, “PubChem BioAssay data set” (2004)
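Five concentrations, 48 hours, 96-well plates. Abbreviation: GI50, concentration required for 50% inhibition of growth.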 Calls of active or inactive are those of the source. Cut-off read from the data, not from the text of the source: active = GI50 up to about 1.1 µM and inactive = higher.

Experiments:
Assay in all cases: NCI tumour cell line growth inhibition, 48 h
786-0 = tested on: 786-0
A498 = tested on: A498
A549 = tested on: A549
ACHN = tested on: ACHN
CCRF-CEM = tested on: CCRF-CEM
COLO 205 = tested on: COLO 205
DLD-1 = tested on: DLD-1
DMS-114 = tested on: DMS-114
DMS-273 = tested on: DMS-273
EKVX = tested on: EKVX
HCC 2998 = tested on: HCC 2998
HCT-116 = tested on: HCT-116
HCT-15 = tested on: HCT-15
HL-60 = tested on: HL-60
HOP-18 = tested on: HOP-18
HOP-62 = tested on: HOP-62
HT-29 = tested on: HT-29
IGROV-1 = tested on: IGROV-1
K562 = tested on: K562
KM-20L2 = tested on: KM-20L2
KM12 = tested on: KM12
LOX IMVI = tested on: LOX IMVI
LXFL 529 = tested on: LXFL 529
M14 = tested on: M14
M19-MEL = tested on: M19-MEL
MOLT-4 = tested on: MOLT-4
Malme-3M = tested on: Malme-3M
NCI-H23 = tested on: NCI-H23
NCI-H460 = tested on: NCI-H460
NCI-H522 = tested on: NCI-H522
OVCAR-3 = tested on: OVCAR-3
OVCAR-5 = tested on: OVCAR-5
OVCAR-8 = tested on: OVCAR-8
RXF 393 = tested on: RXF 393
RXF 631 = tested on: RXF 631
SF-268 = tested on: SF-268
SF-539 = tested on: SF-539
SK-MEL-28 = tested on: SK-MEL-28
SK-MEL-2 = tested on: SK-MEL-2
SK-MEL-5 = tested on: SK-MEL-5
SK-OV-3 = tested on: SK-OV-3
SN12C = tested on: SN12C
SNB-19 = tested on: SNB-19
SNB-75 = tested on: SNB-75
SNB-78 = tested on: SNB-78
SR = tested on: SR
SW-620 = tested on: SW-620
TK-10 = tested on: TK-10
U-251 = tested on: U-251
UACC-257 = tested on: UACC-257
UACC-62 = tested on: UACC-62
UO-31 = tested on: UO-31

Measured: GI50

CCOC(=O)N1CCN(C=S)CC1
> 100 µM: HCT-15
inactive: 786-0 > 100 µM | A498 > 100 µM | A549 > 100 µM | ACHN > 100 µM | CCRF-CEM > 100 µM | COLO 205 > 100 µM | DLD-1 > 100 µM | DMS-114 > 100 µM | DMS-273 > 100 µM | EKVX > 100 µM | HCC 2998 > 100 µM | HCT-116 > 100 µM | HL-60 > 100 µM | HOP-18 > 100 µM | HOP-62 > 100 µM | HT-29 > 100 µM | IGROV-1 > 100 µM | K562 > 100 µM | KM-20L2 > 100 µM | KM12 > 100 µM | LOX IMVI > 100 µM | LXFL 529 > 100 µM | M14 > 100 µM | M19-MEL > 100 µM | MOLT-4 > 100 µM | Malme-3M > 100 µM | NCI-H23 > 100 µM | NCI-H460 > 100 µM | NCI-H522 > 100 µM | OVCAR-3 > 100 µM | OVCAR-5 > 100 µM | OVCAR-8 > 100 µM | RXF 393 > 100 µM | RXF 631 > 100 µM | SF-268 > 100 µM | SF-539 > 100 µM | SK-MEL-28 > 100 µM | SK-MEL-2 > 100 µM | SK-MEL-5 > 100 µM | SK-OV-3 > 100 µM | SN12C > 100 µM | SNB-19 > 100 µM | SNB-75 > 100 µM | SNB-78 > 100 µM | SR > 100 µM | SW-620 > 100 µM | TK-10 > 100 µM | U-251 > 100 µM | UACC-257 > 100 µM | UACC-62 > 100 µM | UO-31 > 100 µM
